One may read the Kd as the constant that tells how readily two partners part at equilibrium. In general, Ki refers to a measure of affinity in units of concentration, obtained from inhibition or displacement. A lower Ki goes with tighter binding.

SMILES strings stand for the structures.

Here are results for three molecules from ChEMBL document CHEMBL1811917 (J Med Chem, 2011).

The target in assay [1] is T1, Arginase (Plasmodium falciparum, UniProt Q8I384).
T1 sequence (Q8I384 whole entry): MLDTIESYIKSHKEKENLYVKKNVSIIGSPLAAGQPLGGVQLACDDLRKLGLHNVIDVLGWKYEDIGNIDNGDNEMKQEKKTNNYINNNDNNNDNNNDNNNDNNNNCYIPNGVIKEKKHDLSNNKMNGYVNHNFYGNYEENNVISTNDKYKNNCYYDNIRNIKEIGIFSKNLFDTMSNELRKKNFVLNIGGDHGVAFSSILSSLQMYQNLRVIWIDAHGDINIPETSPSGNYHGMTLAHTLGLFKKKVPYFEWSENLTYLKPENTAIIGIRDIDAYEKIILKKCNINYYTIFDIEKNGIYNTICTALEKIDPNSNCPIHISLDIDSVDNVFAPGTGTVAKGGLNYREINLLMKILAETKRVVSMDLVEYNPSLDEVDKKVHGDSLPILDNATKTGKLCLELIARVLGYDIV
Briefly: Binding affinity to Plasmodium falciparum arginase.

For assay [2], the target named is T2, Arginase-1 (Homo sapiens, UniProt P05089).
T2 sequence (P05089 whole entry): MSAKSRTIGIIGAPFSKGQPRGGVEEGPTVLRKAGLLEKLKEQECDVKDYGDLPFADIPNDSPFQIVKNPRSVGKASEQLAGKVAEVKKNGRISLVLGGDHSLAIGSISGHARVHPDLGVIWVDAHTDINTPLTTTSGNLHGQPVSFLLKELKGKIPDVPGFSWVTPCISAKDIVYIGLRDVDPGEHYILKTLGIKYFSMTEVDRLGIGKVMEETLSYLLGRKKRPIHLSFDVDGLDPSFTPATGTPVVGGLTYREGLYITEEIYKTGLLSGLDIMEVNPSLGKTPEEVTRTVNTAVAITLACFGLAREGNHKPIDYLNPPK
In words: Binding affinity to human arginase 1 using L-arginine as substrate by surface plasmon resonance assay. In general terms: In SPR one partner is held on a chip, and binding of the other changes the refractive index at the surface.

The target in assay [3] is T3, Arginase-2, mitochondrial (Homo sapiens, UniProt P78540).
T3 sequence (P78540 whole entry): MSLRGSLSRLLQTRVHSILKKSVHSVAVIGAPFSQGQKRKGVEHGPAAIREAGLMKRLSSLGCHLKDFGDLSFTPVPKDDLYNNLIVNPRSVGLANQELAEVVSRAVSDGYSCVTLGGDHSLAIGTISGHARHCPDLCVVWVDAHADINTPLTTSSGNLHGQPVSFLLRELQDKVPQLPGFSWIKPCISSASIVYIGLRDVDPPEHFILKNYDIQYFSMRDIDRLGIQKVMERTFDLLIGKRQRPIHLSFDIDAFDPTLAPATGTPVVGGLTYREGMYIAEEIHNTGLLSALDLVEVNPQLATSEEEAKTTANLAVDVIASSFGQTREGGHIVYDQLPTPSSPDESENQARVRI
In words: Binding affinity to human arginase 2.

Assay [4] deals with T1, Arginase. In words: Inhibition of Plasmodium falciparum arginase using L-arginine as substrate by colorimetric assay.
Assay [5] deals with T2, Arginase-1. In words: Binding affinity to human arginase 1.

As for `N[C@@H](CCCCB(O)O)C(=O)O`, the Kd at Arginase [1] came out at 11 µM; at Arginase-1 [2], 0.018 µM; at Arginase-1 [5], 0.005 µM. The Ki came to 0.0085 µM in assay [3] and 10 µM at Arginase [4].

In turn, `CC(N)(CCCCB(O)O)C(=O)O` (racemic) displayed a Kd on Arginase-1 [2] of 0.88 µM. Moreover, on Arginase [4], the Ki worked out at 260 µM.

As to `NC(CCCCB(O)O)(C(=O)O)C(F)F` (racemic), on Arginase-1 [2], the dissociation constant Kd stood at 34 µM.
